Data on 20 molecules can be found in ChEMBL document CHEMBL1124431, “Preparation and antitumor activity of additional mitomycin A analogues” (J Med Chem, 1989).

The nature of series [1]: Partition coefficient (logP). It is filed as physicochemical. To be noted: octanol/water.
Series [2] relates to P388. The experiment in a line: Maximal effect of the given optimal dose of 6.4 mg/kg against P388 leukemia cells in mice. It is filed as functional, Mus musculus.
A further series is filed under the species Mus musculus. The experiment in a line: log(1/C) was estimated in mice. To be noted: in vivo. Format: organism-based.
The subject of series [3] is P388. The experiment in a line: Minimum effective dose was determined on P388 leukemia cells in mice. Format: functional, Mus musculus. To be noted: for minimal effective dose: Mus musculus, P388, read-out: MED.
In series [4] the test system is P388. Description: Maximal effect of the given optimal dose of 0.8 mg/kg against P388 leukemia cells in mice. It is filed as functional, Mus musculus.
Series [5] deals with P388. The experiment in a line: Maximal effect of the given optimal dose of 0.4 mg/kg against P388 leukemia cells in mice. It is filed as functional, Mus musculus.
In series [6] the test system is B16. Description: Maximal effect of the given optimal dose of 0.8 mg/kg against B16 melanoma cells in mice. Format: functional, Mus musculus.
Series [7] relates to P388. Description: Maximal effect of the given optimal dose of 3.2 mg/kg against P388 leukemia cells in mice. It is filed as functional, Mus musculus.
Series [8] concerns B16. The experiment in a line: Minimum effective dose was determined on B16 melanoma cells in mice. Format: functional. To be noted: Mus musculus, read-out: MED.
Series [9] has as its system B16. Description: Maximal effect of the given optimal dose of 0.8 mg/kg against B16 melanoma in mice. Format: functional, Mus musculus.
Series [10] concerns P388. The experiment in a line: Maximal effect of the given optimal dose of 1.6 mg/kg against P388 leukemia cells in mice. Format: functional, Mus musculus.
The test system of series [11] is P388. The experiment in a line: Maximal effect of the given optimal dose of 0.2 mg/kg against P388 leukemia cells in mice. Format: functional, Mus musculus.
Series [12] concerns B16. Description: Maximal effect of the given optimal dose of 0.4 mg/kg against B16 melanoma in mice. Format: functional, Mus musculus.
Series [13] deals with B16. The experiment in a line: Maximal effect of the given optimal dose of 0.4 mg/kg against B16 melanoma cells in mice. It is filed as organism-based. Also noted: dose 0.4 mg/kg. To be noted: mouse, in vivo.
Series [14] relates to B16. The experiment in a line: Maximal effect of the given optimal dose of 1.6 mg/kg against B16 melanoma in mice. Format: functional, Mus musculus.
For series [15], the system named is B16. Description: Maximal effect of the given optimal dose of 0.3 mg/kg against B16 melanoma in mice. Format: functional, Mus musculus.
Series [16] concerns B16. The experiment in a line: Maximal effect of the given optimal dose of 1.2 mg/kg against B16 melanoma in mice. It is filed as functional, Mus musculus.

As for `CO[C@@]12C(COC(N)=O)C3=C(C(=O)C(C)=C(OCCN4CCSCC4)C3=O)N1CC1NC12` (stereo partly drawn), the logP (usually the decadic logarithm of the partition coefficient of the neutral form, usually between octanol and water) in [1] came out at 2.07. Also, in the series with P388 [2], the T/C (commonly the ratio of treated to control) is >172%. Moreover, the “Log 1/C” value in the series listed under Mus musculus is listed as 6.67. In the series on P388 [3], the MED turned out to be 2.06e-07 M/kg and the minimal effective dose amounted to 0.1 mg/kg.

On to `CO[C@@]12C(COC(N)=O)C3=C(C(=O)C(C)=C(OCCSCCSCCO)C3=O)N1CC1NC12` (stereo partly drawn), for which the logP in [1] was determined as 1.86. The molecule also yielded a T/C in the series with P388 [4] of 140%. Also, the “Log 1/C” value in the series filed under Mus musculus was 5.84. In addition, in the series with P388 [3], the MED came out at 1.603e-06 M/kg and the minimal effective dose came out at 0.8 mg/kg.

Consider `CO[C@@]12C(COC(N)=O)C3=C(C(=O)C(C)=C(OCC4OCCO4)C3=O)N1CC1NC12` (stereo partly drawn), for which the logP in series [1] is -0.18. In addition, the T/C in the series with P388 [5] is 267%. For the same molecule, in the series listed under Mus musculus, the “Log 1/C” value was 7.23. Moreover, in the series with P388 [3], the MED is 5.88e-07 M/kg and the minimal effective dose was < 0.05 mg/kg.

Take `CO[C@@]12C(COC(N)=O)C3=C(C(=O)C(C)=C(OCCOCCCl)C3=O)N1CC1NC12` (stereo partly drawn): the logP in series [1] amounted to 1.18. The T/C in the series on B16 [6] is listed as 169%; with P388 [7], 183%. Moreover, the “Log 1/C” value in the series filed under Mus musculus was 7.21. Besides, the MED in the series on P388 [3] is 6.2e-08 M/kg. In addition, the minimal effective dose in the series with P388 [3] is < 0.05 mg/kg; in the series on B16 [8], 0.4 mg/kg.

Take `CO[C@@]12C(COC(N)=O)C3=C(C(=O)C(C)=C(OCCSCc4ccccc4)C3=O)N1CC1NC12` (stereo partly drawn): the logP in [1] was 3.58. Moreover, in the series with P388 [2], the T/C is recorded as 156%. For the same molecule, the “Log 1/C” value in the series listed under Mus musculus was 6.37. In addition, in the series on P388 [3], the MED stood at 4.25e-07 M/kg and the minimal effective dose was determined as 0.2 mg/kg.

Consider `COCC(O)COC1=C(C)C(=O)C2=C(C1=O)C(COC(N)=O)[C@@]1(OC)C3NC3CN21` (stereo partly drawn), for which the logP in series [1] was -0.59. Moreover, the T/C with B16 [9] is reported as 211%; with P388 [4], 222%. For the same molecule, in the series filed under Mus musculus, the “Log 1/C” value is reported as 6.94. Further, the MED in the series with P388 [3] amounted to 1.16e-07 M/kg. Further, the minimal effective dose is < 0.1 mg/kg with P388 [3] and 0.2 mg/kg in the series on B16 [8].

In series [1], `CCOCCOC1=C(C)C(=O)C2=C(C1=O)C(COC(N)=O)[C@@]1(OC)C3NC3CN21` (stereo partly drawn) registered a logP of 0.79. The molecule also had a T/C in the series on P388 [10] of 133%. Besides, the “Log 1/C” value in the series listed under Mus musculus is 7.33. Besides, in the series with P388 [3], the MED was 4.65e-07 M/kg and the minimal effective dose came out at 0.2 mg/kg.

As for `CO[C@@]12C(COC(N)=O)C3=C(C(=O)C(C)=C(OCCC4OCCCO4)C3=O)N1CC1NC12` (stereo partly drawn), the logP in series [1] was determined as 0.82. In addition, the results for the T/C with P388 [11] and in the series on B16 [12] were 117% and 154%, respectively. The minimal effective dose with B16 [8] was < 0.3 mg/kg.

In turn, `CO[C@@]12C(COC(N)=O)C3=C(C(=O)C(C)=C(OCc4ccccn4)C3=O)N1CC1NC12` (stereo partly drawn) came in with a logP in [1] of 0.91. This molecule also displayed a T/C with P388 [4] of 164%. Also, the “Log 1/C” value in the series filed under Mus musculus is reported as 6.04. In the series on P388 [3], the MED was found to be 9.2e-07 M/kg and the minimal effective dose was found to be 0.4 mg/kg.

Turning to `CO[C@@]12C(COC(N)=O)C3=C(C(=O)C(C)=C(OCCN4CCCC4)C3=O)N1CC1NC12` (stereo partly drawn), the logP in series [1] came out at 1.46. Moreover, the T/C in the series with B16 [13] came out at 107%; with P388 [2] it was 217%. For the same molecule, the “Log 1/C” value in the series filed under Mus musculus is 6.94. This molecule also registered an MED with P388 [3] of 1.13e-07 M/kg. The minimal effective dose in the series on P388 [3] was < 0.1 mg/kg.

Consider `CO[C@@]12C(COC(N)=O)C3=C(C(=O)C(C)=C(OCCSC)C3=O)N1CC1NC12` (stereo partly drawn), for which the log partition coefficient (logP) in series [1] came out at 1.37. The molecule further gave a T/C in the series with P388 [10] of 165%. Moreover, the “Log 1/C” value in the series filed under Mus musculus was 6.02. Besides, in the series with P388 [3], the MED came to 9.57e-07 M/kg and the minimal effective dose came out at 0.4 mg/kg.

Turning to `CO[C@@]12C(COC(N)=O)C3=C(C(=O)C(C)=C(OCC4CC4)C3=O)N1CC1NC12` (stereo partly drawn), the logP in series [1] is 1.67. The T/C with P388 [10] came out at 144%. In the series filed under Mus musculus, the “Log 1/C” value is listed as 5.97. Moreover, in the series on P388 [3], the MED is 1.028e-06 M/kg and the minimal effective dose worked out at 0.4 mg/kg.

Consider `CO[C@@]12C(COC(N)=O)C3=C(C(=O)C(C)=C(OC4CCOCC4)C3=O)N1CC1NC12` (stereo partly drawn), for which the logP in [1] came out at 1.29. Further, the T/C in the series with B16 [14] is recorded as 135%; in the series with P388 [7], 212%. Also, the “Log 1/C” value in the series filed under Mus musculus was 6.93. The molecule also came in with an MED with P388 [3] of 1.17e-07 M/kg. The minimal effective dose in the series on P388 [3] is < 0.1 mg/kg; in the series with B16 [8], 1.6 mg/kg.

On to `CO[C@@]12C(COC(N)=O)C3=C(C(=O)C(C)=C(OC4CC4)C3=O)N1CC1NC12` (stereo partly drawn), for which the logP in series [1] amounted to 1.17. Besides, the T/C turned out to be 138% with B16 [6] and 172% with P388 [7]. Further, the “Log 1/C” value in the series filed under Mus musculus is 6.89. In the series on P388 [3], this molecule came in with an MED of 1.3e-07 M/kg. Moreover, the minimal effective dose was found to be 0.05 mg/kg in the series on P388 [3] and 0.8 mg/kg in the series on B16 [8].

In series [1], `COCC(C)OC1=C(C)C(=O)C2=C(C1=O)C(COC(N)=O)[C@@]1(OC)C3NC3CN21` (stereo partly drawn) displayed a logP of 0.79. The T/C with P388 [4] was 206%. The “Log 1/C” value in the series listed under Mus musculus is recorded as 6.21. Further, in the series with P388 [3], the MED was 4.81e-07 M/kg and the minimal effective dose came out at 0.2 mg/kg.

Regarding `COC1=C(C)C(=O)C2=C(C1=O)[C@@H](COC(N)=O)[C@@]1(OC)[C@H]3N[C@H]3CN21` [MITOMYCIN A], in the series filed under Mus musculus, the “Log 1/C” value is 6.84. Moreover, the T/C in the series with P388 [7] is on record as 180%; in the series with B16 [15], 177%. This molecule showed an MED with P388 [3] of 1.43e-07 M/kg. Further, the minimal effective dose in the series on P388 [3] and with B16 [8] was 0.05 mg/kg each time.

The molecule `CO[C@@]12C(COC(N)=O)C3=C(C(=O)C(C)=C(OC4COCOC4)C3=O)N1CC1NC12` (stereo partly drawn) registered a logP in [1] of 0.31. The T/C was determined as 210% in the series on P388 [10] and 222% in the series with B16 [16]. Further, the “Log 1/C” value in the series listed under Mus musculus is recorded as 6.93. Moreover, in the series with P388 [3], the MED was found to be 1.18e-07 M/kg. The minimal effective dose was < 0.1 mg/kg in the series on P388 [3] and < 0.3 mg/kg in the series on B16 [8].

As for `CO[C@@]12C(COC(N)=O)C3=C(C(=O)C(C)=C(OCCCN(CCO)CCO)C3=O)N1CC1NC12` (stereo partly drawn), the lipophilicity (logP) in series [1] was -0.28. This molecule had a T/C in the series on P388 [11] of 106%.

Consider `CO[C@@]12C(COC(N)=O)C3=C(C(=O)C(C)=C(OCC4COCO4)C3=O)N1CC1NC12` (stereo partly drawn), for which, in [1], the logP worked out at 0.31. In the series on P388 [5], this molecule showed a T/C of 140%. Moreover, the “Log 1/C” value in the series listed under Mus musculus is 6.32. In the series on P388 [3], the MED came to 4.75e-07 M/kg and the minimal effective dose was found to be 0.2 mg/kg.

For the molecule `CO[C@@]12C(COC(N)=O)C3=C(C(=O)C(C)=C(OCCCSCCCO)C3=O)N1CC1NC12` (stereo partly drawn), the logP in [1] stood at 3.49. For the same molecule, in the series on P388 [2], the T/C worked out at 153%. In the series filed under Mus musculus, the “Log 1/C” value is reported as 6.98. Further, in the series with P388 [3], the MED stood at 1.02e-07 M/kg and the minimal effective dose was < 0.1 mg/kg.
